Experimental data reported in publication PMC12559310, “Tumor-targeted top1 inhibitor delivery with optimized parp inhibition in advanced solid tumors: a phase i trial of gapped scheduling” (Nature Communications, 2025).
“And” between values parts separate entries of the source, which are not always exact repeats. Equal values may be shown once. Read-outs that look alike come from different tables or passages of the source.

What was measured:
[1] = tested on: patients with solid tumors; settings: cited from earlier work
[2] = tested on: patients with advanced solid tumors; assay: Phase I dose escalation (3 + 3 design): DLTs and MTD/RP2D of CRLX101 plus olaparib; format: in vivo, human; settings: CRLX101 12 mg/m2 combined with Olaparib 250 tab bid; % of single-agent MTD; Current study
Description: Olaparib tablets were given at escalating doses across cohorts (as shown in Fig. 1), administered twice daily on days 3–13 and 17–26 of the treatment cycle.
A standard 3 + 3 design was used for dose escalation. […] DLTs were based on toxicities observed during the first cycle. […] Study treatment was discontinued if there was a > 3-week delay in reinstitution of treatment due to drug-related toxicity during a cycle. Dose reductions were allowed for toxicities. A maximum of two dose reductions were allowed. Dose re-escalation was not allowed.

γ-H2AX [3] = assay: γ-H2AX intensity in plucked hair bulbs; format: in vivo, human; settings: for gamma-H2AX intensities / excess gamma-H2AX intensities (minus D1) / gamma-H2AX intensities minus D1, averages / gamma-H2AX intensities, averages: plucked hairs; for gamma-H2AX intensities / excess gamma-H2AX intensities (minus D1): D3 (48 h after CRLX101, before olaparib); for gamma-H2AX intensities minus D1, averages / gamma-H2AX intensities, averages: D3 (before olaparib)
Experimental: (§1) PBMCs were isolated by Ficoll gradient, washed 3 times with phosphate-buffered saline (PBS), fixed in 2% paraformaldehyde (PFA) for 20 min, washed 3 times with PBS, and spotted on slides by cytospin (800 rpm/4 min). PBMCs on slides were permeabilized with pre-chilled ethanol 70% and slides were stored at 4 °C overnight. […] Finally, slides were incubated at 37 °C for 5 min with a solution containing RNAse A (0.5 mg/mL) and propidium iodide (PI) (5 µg/mL). Slides were then mounted with mounting medium containing PI (Vectashield, Vector Laboratories, Inc., Burlingame, CA, USA) and sealed with nail polish.
Hair bulbs were collected in 1.5 microtubes filled with cold PBS and placed on ice directly after plucking. Plucked hairs were then fixed for 20 min at room temperature with 2% PFA in 1.5 microtubes. Following 3 washes with 1 ml PBS, plucked hairs were imaged, and anagen hair bulbs hairs were selected for γ-H2AX detection. Samples were permeabilized with pre-chilled ethanol 70%, washed, and stored at 4 °C until use. γ-H2AX detection was performed as described for PBMCs, but times for blocking and staining procedures were increased by 50%. Washes were performed by 3 washes with PBS. After incubation with the RNAse and PI solution at 37 °C for 30 min, hair shafts were detached from the bulbs by using a razor blade, and hair bulbs were mounted between a slide and a coverslip with mounting medium containing PI and sealed with nail polish.
(§2) Samples were imaged by laser scanning confocal microscopy (Zeiss LSM 710 NLO). Optical sections through PBMCs and hair bulbs were combined in a maximum projection using the Zeiss Zen software. The foci were counted in PBMCs using the FociCounter software[55] by analyzing at least 200 cells, while γ-H2AX intensities were measured in the extremity of the hair bulbs with the Image J software. The above antibodies have been used in previous studies[56],[57].

γ-H2AX [4] = assay: γ-H2AX foci per cell in PBMCs; format: in vivo, human; settings: for γ-H2AX foci per cell in PBMCs Minus D1, averages (Fig 3G) / γ-H2AX foci per cell in PBMCs, averages (Fig 3G): D3 (before olaparib); for γ-H2AX, AVERAGES foci per cell / γ-H2AX, AVERAGES excess foci per cell: PBMCs; for γ-H2AX, AVERAGES foci per cell: D3 (48 h after CRLX101, before olaparib)
Experimental: as §1, §2

[5] = tested on: patients with advanced solid malignancies; settings: cited from earlier work
SCLC cell lines = tested on: SCLC cell lines; design: method as in protocol [5]; settings: pre-clinical models of SCLC; ref protocol [5]; cited from earlier work
[6] = tested on: xenografts and patient-derived xenografts (PDXs); design: method as in protocol [7]; settings: animal models; ref protocol [7]; cited from earlier work
[7] = tested on: platinum-sensitive SCLC relapse; design: method as in protocol [8]; settings: preliminary data, ref protocol [8], cited from earlier work
[8] = phase 1/2a patients receiving the MTD (n=44), no grade 4

C[C@]1(c2nc3c(C(N)=O)cccc3[nH]2)CCCN1 [veliparib]
PARPi % of MTD ([1]; Veliparib 50 mg BID with Liposomal Irinotecan 70 mg/m2 q2w, ref LaRose, Oncologist, 2023): 13%
PARPi % of MTD ([1]; Veliparib 300 mg bid with Topotecan 3 mg/m2 d2,9,16, ref Hendrickson, Clin Can Res, 2017): 75%
PARPi % of MTD ([1]; Veliparib 10 bid d1-5 with Topotecan 0.6 mg/m2/d1-5, % of single-agent MTD, ref Kummar, Can Res, 2011): 3%
PARPi % of MTD ([1]; Veliparib 10 bid d1-5 with Topotecan 0.6 mg/m2/d1-5, % of single-agent MTD, ref Kummar, Can Res, 2011, listed as Veliparib): ≈ 3%
PARPi % of MTD ([1]; Veliparib 40 bid d1-14 with Irinotecan 100 mg/m2, ref LoRusso, Clin Can Res, 2016): 10%

Poly-CD-PEG-Camptothecin [CRLX101]
Topo1i % of MTD [2]: 80%
γH2AX signal after CRLX101 alone (γ-H2AX [3]; Day 3 (48 h after CRLX101, pre-olaparib) vs pre-treatment, hair follicles and PBMC): increase in γH2AX signal
gamma-H2AX intensities (γ-H2AX [3]; DL1, average per patient): 4.816
excess gamma-H2AX intensities (minus D1) (γ-H2AX [3]; DL1, per patient): 2.945
gamma-H2AX intensities (γ-H2AX [3]; DL2, average per patient): 5.391 and 2.136 and 5.3349 and 5.978 and 6.804
excess gamma-H2AX intensities (minus D1) (γ-H2AX [3]; DL2, per patient): 2.273 and 0.6534 and 4.441 and 4.582 and 4.99
gamma-H2AX intensities (γ-H2AX [3]; DL3, average per patient): 4.982 and 13.4338 and 12.7188
excess gamma-H2AX intensities (minus D1) (γ-H2AX [3]; DL3, per patient): 4.135 and 12.5502 and 12.1828
gamma-H2AX intensities (γ-H2AX [3]; DL4, average per patient): 3.4222 and 3.662 and 5.428
excess gamma-H2AX intensities (minus D1) (γ-H2AX [3]; DL4, per patient): 2.309 and 3.241 and 5.235
gamma-H2AX intensities (γ-H2AX [3]; DL4R, average per patient): 4.487 and 2.444 and 10.191 and 5.772
excess gamma-H2AX intensities (minus D1) (γ-H2AX [3]; DL4R, per patient): 3.986 and 2 and 9.666 and 4.568
gamma-H2AX intensities minus D1, averages (γ-H2AX [3]; DL1): 2.945
gamma-H2AX intensities, averages (γ-H2AX [3]; DL1, average across patients): 4.816
gamma-H2AX intensities minus D1, averages (γ-H2AX [3]; DL2): 3.388
gamma-H2AX intensities, averages (γ-H2AX [3]; DL2, average across patients): 5.129
gamma-H2AX intensities minus D1, averages (γ-H2AX [3]; DL3): 9.623
gamma-H2AX intensities, averages (γ-H2AX [3]; DL3, average across patients): 10.3781
gamma-H2AX intensities minus D1, averages (γ-H2AX [3]; DL4): 0.8727
gamma-H2AX intensities, averages (γ-H2AX [3]; DL4, average across patients): 4.171
gamma-H2AX intensities minus D1, averages (γ-H2AX [3]; DL4R): 3.856
gamma-H2AX intensities, averages (γ-H2AX [3]; DL4R, average across patients): 5.7233
γ-H2AX foci per cell in PBMCs Minus D1, averages (Fig 3G) (γ-H2AX [4]; DL1): 0.009559
γ-H2AX foci per cell in PBMCs, averages (Fig 3G) (γ-H2AX [4]; DL1, average across patients): 0.2861
γ-H2AX foci per cell in PBMCs Minus D1, averages (Fig 3G) (γ-H2AX [4]; DL2): -0.04097
γ-H2AX foci per cell in PBMCs, averages (Fig 3G) (γ-H2AX [4]; DL2, average across patients): 0.07487
γ-H2AX foci per cell in PBMCs Minus D1, averages (Fig 3G) (γ-H2AX [4]; DL3): 0.07028
γ-H2AX foci per cell in PBMCs, averages (Fig 3G) (γ-H2AX [4]; DL3, average across patients): 0.3286
γ-H2AX foci per cell in PBMCs Minus D1, averages (Fig 3G) (γ-H2AX [4]; DL4): 0.05059
γ-H2AX foci per cell in PBMCs, averages (Fig 3G) (γ-H2AX [4]; DL4, average across patients): 0.1354
γ-H2AX foci per cell in PBMCs Minus D1, averages (Fig 3G) (γ-H2AX [4]; DL4R): 0.1138
γ-H2AX foci per cell in PBMCs, averages (Fig 3G) (γ-H2AX [4]; DL4R, average across patients): 0.1974
γ-H2AX, AVERAGES foci per cell (γ-H2AX [4]; DL1, per patient): 0.4504 foci per cell and 0.1217 foci per cell
γ-H2AX, AVERAGES foci per cell (γ-H2AX [4]; DL2, per patient): 0.06098 foci per cell and 0.03645 foci per cell and 0.07605 foci per cell and 0.04348 foci per cell and 0.1574 foci per cell
γ-H2AX, AVERAGES foci per cell (γ-H2AX [4]; DL3, per patient): 0.574 foci per cell and 0.2632 foci per cell and 0.1488 foci per cell
γ-H2AX, AVERAGES foci per cell (γ-H2AX [4]; DL4, per patient): 0.05652 foci per cell and 0.07904 foci per cell and 0.3651 foci per cell and 0.04096 foci per cell
γ-H2AX, AVERAGES foci per cell (γ-H2AX [4]; DL4R, per patient): 0.05895 foci per cell and 0.2317 foci per cell and 0.2655 foci per cell and 0.1875 foci per cell and 0.2432 foci per cell
γ-H2AX, AVERAGES excess foci per cell (γ-H2AX [4]; D3 (before olaparib) minus D1, DL1, per patient): 0.02853 foci per cell and -0.009408 foci per cell
γ-H2AX, AVERAGES excess foci per cell (γ-H2AX [4]; D3 (before olaparib) minus D1, DL2, per patient): 0.01208 foci per cell and -0.0007052 foci per cell and -0.1169 foci per cell and -0.007436 foci per cell and -0.09186 foci per cell
γ-H2AX, AVERAGES excess foci per cell (γ-H2AX [4]; D3 (before olaparib) minus D1, DL3, per patient): 0.159 foci per cell and 0.113 foci per cell and -0.06118 foci per cell
γ-H2AX, AVERAGES excess foci per cell (γ-H2AX [4]; D3 (before olaparib) minus D1, DL4, per patient): -0.04714 foci per cell and 0.07394 foci per cell and 0.1683 foci per cell and 0.007302 foci per cell
γ-H2AX, AVERAGES excess foci per cell (γ-H2AX [4]; D3 (before olaparib) minus D1, DL4R, per patient): 0.006793 foci per cell and 0.06366 foci per cell and 0.2087 foci per cell and 0.1048 foci per cell and 0.1705 foci per cell
Best overall response stable disease ([5]; 16 of a subset of NSCLC patients): 73%
Best overall response stable disease ([5]; 28 patients treated at the MTD): 64%
MTD ([5]; CRLX101 monotherapy, bi-weekly, IV over 60 min, ref protocol [15]): 15 mg/m2
Median progression-free survival (PFS) ([5]; patients treated at the MTD): 3.7 months
Grade 3 fatigue [5, 8]: 9%
Grade 3 neutropenia [5, 8]: 9%
Median progression-free survival (PFS) ([5]; subset of NSCLC patients): 4.4 months

CC[C@@]1(O)C(=O)OCc2c1cc1n(c2=O)Cc2cc3c(CN(C)C)c(O)ccc3nc2-1 [topotecan]
Topo1i % of MTD ([1]; Topotecan 0.6 mg/m2/d1-5 with Veliparib 10 bid d1-5, % of single-agent MTD, ref Kummar, Can Res, 2011): 40%
Topo1i % of MTD ([1]; Topotecan 1 mg/m2/d1-3 with Olaparib 100 mg bid d1-21, ref Samol, Inv New Drugs, 2012): 40%
Topo1i % of MTD ([1]; Topotecan 3 mg/m2 d2,9,16 with Veliparib 300 mg bid, ref Hendrickson, Clin Can Res, 2017): 75%

Cn1ncnc1[C@H]1c2n[nH]c(=O)c3cc(F)cc(c23)N[C@@H]1c1ccc(F)cc1 [talazoparib]
single agent activity (SCLC cell lines): striking single agent activity in a majority of SCLC cell lines tested
anti-tumor activity as a single agent [6]: comparable or superior to cisplatin
RECIST confirmed partial responses, patients ([7]; of 23 patients): 2
stable disease lasting more than 24 weeks, patients ([7]; of 23 patients): 3
clinical benefit rate [7]: 25%

CCc1c2c(nc3ccc(OC(=O)N4CCC(N5CCCCC5)CC4)cc13)-c1cc3c(c(=O)n1C2)COC(=O)[C@]3(O)CC [Irinotecan]
Topo1i % of MTD ([1]; Irinotecan 100 mg/m2 with Veliparib 40 bid d1-14, ref LoRusso, Clin Can Res, 2016): 80%
Topo1i % of MTD ([1]; Irinotecan 125 mg/m2 q2w with Olaparib 50 mg bid d1-5, ref Chen, Inv New Drugs, 2016): 69%
Topo1i % of MTD ([1]; Irinotecan 200 mg/m2 q3w with Olaparib 50 mg qd d1-21, ref Chen, Inv New Drugs, 2016): 57%

CNCc1ccc(-c2[nH]c3cc(F)cc4c3c2CCNC4=O)cc1 [rucaparib]
single agent activity (SCLC cell lines): striking single agent activity in a majority of SCLC cell lines tested
